The Kinase Knowledgebase extract (Sharma et al. 2016)

Biological target: CDK2 (human) (UniProt P24941)
Assay: Enzyme Assay

| Ki [nM] | Structure (SMILES) |
| --- | --- |
| < 1000 | CC(C)(C)OC(=O)n1[nH]c(=O)c2cc(Nc3nc(Nc4cc(C5CC5)[nH]n4)c4ccccc4n3)ccc21 |
| < 1000 | Cc1ccc2nc(Nc3ccc4c(=O)[nH][nH]c4c3)nc(Nc3cc(C4CC4)[nH]n3)c2n1 |
| < 1000 | Cn1cnc(NC(CCSc2ccc3c(=O)[nH][nH]c3c2)c2ccccc2)c1 (stereo not drawn) |
| < 1000 | O=c1[nH][nH]c2cc(C(F)(F)F)c(-c3cc(Nc4n[nH]c5ccccc45)cc(C4CCCCC4)n3)cc12 |
| < 1000 | CN(C)CCNc1nnc(Nc2n[nH]c3ccccc23)cc1-c1ccc2[nH][nH]c(=O)c2c1Cl |
| < 1000 | O=c1[nH][nH]c2cc(Nc3nc(Nc4cc(C5CCCC5)[nH]n4)c4ccccc4n3)ccc12 |
| < 1000 | Cn1cnc(NC2CCC(COCc3ccc4c(=O)[nH][nH]c4c3)C2)c1 (stereo not drawn) |
| < 1000 | O=C(CCNc1nccnn1)Oc1ccc2c(=O)[nH][nH]c2c1 |
| < 1000 | Cc1cnc(NCCCOc2ccc3c(=O)[nH][nH]c3c2)s1 |
| < 1000 | Cc1cc(Nc2cc(Sc3ccc4c(=O)[nH][nH]c4c3)nc3ccccc23)n[nH]1 |
| < 1000 | O=c1[nH][nH]c2cc(Sc3cc(Nc4cc(C5CC5)[nH]n4)c4ccccc4n3)ccc12 |
| < 1000 | Cc1cnc(NOCCOc2ccc3c(=O)[nH][nH]c3c2)s1 |
| < 1000 | O=c1[nH][nH]c2cc(COCc3nc(Nc4cc(C5CC5)[nH]n4)c4ccccc4n3)ccc12 |
| < 1000 | Cc1cc(Nc2nc(Nc3ccc4c(=O)[nH][nH]c4c3)nc3ccc(I)cc23)n[nH]1 |
| < 1000 | Cc1cc(Nc2cc(COc3ccc4c(=O)[nH][nH]c4c3)nc3c2CCCC3)n[nH]1 |
| < 1000 | Cc1cc(Nc2cc(C)[nH]n2)nc(C2(c3ccc4c(=O)[nH][nH]c4c3)CC2)n1 |
| < 1000 | Cc1cc(Nc2nc(Sc3ccc4c(=O)[nH][nH]c4c3)cc3ccccc23)n[nH]1 |
| < 1000 | O=c1[nH][nH]c2cc(Oc3cc(Nc4cc(C5CC5)[nH]n4)ccn3)ccc12 |
| < 1000 | N#Cc1cc2[nH][nH]c(=O)c2cc1-c1nc(Nc2n[nH]c3ccccc23)nc(N2CCCCC2)n1 |
| < 1000 | Cc1cc(Nc2cnnc(-c3ccc4[nH][nH]c(=O)c4c3)c2)n[nH]1 |
| < 1000 | O=c1[nH][nH]c2cc(CCCC(Nc3nccnn3)c3ccccc3)ccc12 (stereo not drawn) |
| < 1000 | Cc1cnc(NOCCSc2ccc3c(=O)[nH][nH]c3c2)s1 |
| < 1000 | O=c1[nH][nH]c2ccc(C3CCC(Nc4nccnn4)C3)cc12 (stereo not drawn) |
| < 1000 | O=c1[nH][nH]c2cc(O)c(-c3nc(Nc4n[nH]c5c(F)cc(F)cc45)c4ccccc4n3)cc12 |
| < 1000 | O=c1[nH][nH]c2cc(Nc3nc(Nc4cc(-c5ccco5)[nH]n4)cc(-c4ccccc4)n3)ccc12 |

| Ki [nM] | Structure (SMILES) |
| --- | --- |
| < 1000 | O=c1[nH][nH]c2ccc(Nc3nc(Nc4cc(C5CC5)[nH]n4)c4ccccc4n3)cc12 |
| < 1000 | CCc1cc(Nc2cc(C)[nH]n2)nc(-c2ccc3[nH][nH]c(=O)c3c2)n1 |
| < 1000 | O=c1[nH][nH]c2cc(OCCONc3ccccn3)ccc12 |
| < 1000 | O=c1[nH][nH]c2cc(Sc3cccc(Nc4n[nH]c5ccccc45)n3)ccc12 |
| < 1000 | O=C(CCSc1ccc2c(=O)[nH][nH]c2c1)Nc1nccnn1 |
| < 1000 | Cc1cnc(NC2CCCC(c3ccc4[nH][nH]c(=O)c4c3)C2)s1 (stereo not drawn) |
| < 1000 | O=c1[nH][nH]c2ccc(-c3nc(Nc4n[nH]c5c(F)cccc45)c4ccncc4n3)c(Cl)c12 |
| < 1000 | O=c1[nH][nH]c2cc(SCCCNc3cc(C4CC4)[nH]n3)ccc12 |
| < 1000 | O=c1[nH][nH]c2cc(OCCCNc3ccccn3)ccc12 |
| < 1000 | O=c1[nH][nH]c2cc(Cl)c(-c3cc4ncccc4c(Nc4n[nH]c5ccccc45)n3)cc12 |
| < 1000 | O=c1[nH][nH]c2ccc(-c3cc4ccccc4c(Nc4n[nH]c5c(F)cc(F)cc45)n3)c(C(F)(F)F)c12 |
| < 1000 | Cc1cc(Nc2nc(Nc3ccc4c(=O)[nH][nH]c4c3)nc(C)c2C)n[nH]1 |
| < 1000 | COCc1cc(Nc2cc(C)[nH]n2)nc(COc2ccc3[nH][nH]c(=O)c3c2)n1 |
| < 1000 | Cc1cnc(NC(CCNc2ccc3c(=O)[nH][nH]c3c2)c2ccccc2)s1 (stereo not drawn) |
| < 1000 | O=c1[nH][nH]c2cc(CCC3CCC(Nc4nccnn4)C3)ccc12 (stereo not drawn) |
| < 1000 | Cn1cnc(NC2CCC(Nc3ccc4c(=O)[nH][nH]c4c3)C2)c1 (stereo not drawn) |
| < 1000 | COCCCc1cc(Nc2nc(-c3ccc4[nH][nH]c(=O)c4c3)nc3ccccc23)n[nH]1 |
| < 1000 | Cc1cc(Nc2cc(C3CC3)[nH]n2)nc(Nc2ccc3c(=O)[nH][nH]c3c2)n1 |
| < 1000 | Cc1cc(Nc2nc(Sc3ccc4c(=O)[nH][nH]c4c3)nc3cc(OCCCN4CCOCC4)ccc23)n[nH]1 |
| < 1000 | O=c1[nH][nH]c2cc(Sc3nc(Nc4cc(C5CC5)[nH]n4)c4cccc(F)c4n3)ccc12 |
| < 1000 | O=c1[nH][nH]c2cc(SCC3CCCC3Nc3cc(C4CC4)[nH]n3)ccc12 (stereo not drawn) |
| < 1000 | O=c1[nH][nH]c2cc(NCC3CCCC3Nc3nccnn3)ccc12 (stereo not drawn) |
| < 1000 | O=c1[nH][nH]c2cc(NC(CCNc3cc(C4CC4)[nH]n3)Cc3ccccc3)ccc12 (stereo not drawn) |
| < 1000 | Cc1cc(-c2cc3c(=O)[nH][nH]c3cc2Cl)nc(Nc2n[nH]c3ccccc23)c1C |
| < 1000 | Cc1cc(Nc2nc(-c3cc4c(=O)[nH][nH]c4cc3-c3ccccc3)nc3ccccc23)n[nH]1 |

| Ki [nM] | Structure (SMILES) |
| --- | --- |
| < 1000 | O=c1[nH][nH]c2ccc(C3COCC(Nc4nccnn4)C3)cc12 (stereo not drawn) |
| < 1000 | Cc1cc(Nc2nc(Nc3ccc4c(=O)[nH][nH]c4c3)nc3ccccc23)n[nH]1 |
| < 1000 | Cc1cc(Nc2nc(Nc3ccc4c(=O)[nH][nH]c4c3)nc3c2CN(Cc2ccccc2)CC3)n[nH]1 |
| < 1000 | Cc1cc(Nc2nc(Nc3ccc4c(=O)[nH][nH]c4c3)nc3cccc(C)c23)n[nH]1 |
| < 1000 | Cc1cc(Nc2cc(C3CC3)[nH]n2)nc(Oc2ccc3c(=O)[nH][nH]c3c2)n1 |
| < 1000 | Cc1nc(Sc2ccc3c(=O)[nH][nH]c3c2)nc(Nc2cc(C3CC3)[nH]n2)c1C |
| < 1000 | O=c1[nH][nH]c2cc(CCC3CCCC3Nc3cc(C4CC4)[nH]n3)ccc12 (stereo not drawn) |
| < 1000 | O=c1[nH][nH]c2ccc(-c3nc(Nc4n[nH]c(C5CC5)n4)c4ccncc4n3)c(Cl)c12 |
| < 1000 | O=c1[nH][nH]c2cc(Nc3nc(Nc4cc(-c5ccccc5)[nH]n4)cc(-c4cccc([N+](=O)[O-])c4)n3)ccc12 |
| < 1000 | Cc1cc(Nc2nc(Sc3ccc4c(=O)[nH][nH]c4c3)nc3c(OCCCN(C)C)cccc23)n[nH]1 |
| < 1000 | O=c1[nH][nH]c2cc(C(F)(F)F)c(-c3cc(-c4ccncc4)nc(Nc4cc(C5CC5)[nH]n4)n3)cc12 |
| < 1000 | CN(C)c1nc(Nc2ccc3c(=O)[nH][nH]c3c2)nc(Nc2cc(C3CC3)[nH]n2)n1 |
| < 1000 | NC(=O)c1cc(-c2ncnc(Nc3n[nH]c4c3CCC(=O)C4)n2)cc2c(=O)[nH][nH]c12 |
| < 1000 | O=c1[nH][nH]c2cc(Cc3cc4ccccc4c(Nc4cc(C5CC5)[nH]n4)n3)ccc12 |
| < 1000 | O=c1[nH][nH]c2cc(NOCCNc3ccccn3)ccc12 |
| < 1000 | O=c1[nH][nH]c2cc(NCCCNc3cc(C4CC4)[nH]n3)ccc12 |
| < 1000 | O=c1[nH][nH]c2ccc(-c3nc4c(c(Nc5n[nH]c6ccc(F)cc56)n3)CN(Cc3ccccc3)CC4)c(C(F)(F)F)c12 |
| < 1000 | O=c1[nH][nH]c2ccc(-c3nnc(C4CC4)c(Nc4n[nH]c5ccccc45)n3)c(C(F)(F)F)c12 |
| < 1000 | O=c1[nH][nH]c2cc(OCC3CCCC(Nc4nccnn4)C3)ccc12 (stereo not drawn) |
| < 1000 | Cc1cnc(NC2CCCC(Sc3ccc4c(=O)[nH][nH]c4c3)C2)s1 (stereo not drawn) |
| < 1000 | O=c1[nH][nH]c2cc(Nc3nc(Nc4cc(C5CC5)[nH]n4)nc(-c4ccccc4)n3)ccc12 |
| < 1000 | Cn1cnc(NC2CCCC2CNc2ccc3c(=O)[nH][nH]c3c2)c1 (stereo not drawn) |
| < 1000 | O=c1[nH][nH]c2cc(OCCONc3nccnn3)ccc12 |
| < 1000 | O=c1[nH][nH]c2cc(Nc3cccc(Nc4ccccn4)c3)ccc12 |
| < 1000 | O=c1[nH][nH]c2cc(CC(CCNc3ccccn3)Cc3ccccc3)ccc12 (stereo not drawn) |

| Ki [nM] | Structure (SMILES) |
| --- | --- |
| < 1000 | Cc1cc(Nc2cc(-c3c(C)cccc3C)nc(Oc3ccc4c(=O)[nH][nH]c4c3)n2)n[nH]1 |
| < 1000 | Cc1cc(Nc2cc(-c3ccccc3)[nH]n2)nc(-c2ccc3[nH][nH]c(=O)c3c2)n1 |
| < 1000 | Cc1cc(Nc2cc(C(C)(C)C)nc(Sc3ccc4c(=O)[nH][nH]c4c3)n2)n[nH]1 |
| < 1000 | CC(=O)Nc1ccc(Sc2cc(Nc3cc(C)[nH]n3)nc(-c3ccc4[nH][nH]c(=O)c4c3)n2)cc1 |
| < 1000 | O=C(CCOc1ccc2c(=O)[nH][nH]c2c1)Nc1nccnn1 |
| < 1000 | Cc1cccc2nc(Nc3ccc4c(=O)[nH][nH]c4c3)nc(Nc3cc(C4CC4)[nH]n3)c12 |
| < 1000 | Cc1cc(Nc2cc(-c3ccc(OCCCN(C)C)cc3)nc(Sc3ccc4c(=O)[nH][nH]c4c3)n2)n[nH]1 |
| < 1000 | O=c1[nH][nH]c2ccc(-c3cnnc(Nc4cc(C5CC5)[nH]n4)c3)cc12 |
| < 1000 | O=c1[nH][nH]c2cc(SC3CCCC(Nc4cc(C5CC5)[nH]n4)C3)ccc12 (stereo not drawn) |
| < 1000 | Cc1cnc(Sc2ccc3c(=O)[nH][nH]c3c2)nc1Nc1cc(C2CC2)[nH]n1 |
| < 1000 | Cn1cnc(NC(=O)CC(=O)Nc2ccc3c(=O)[nH][nH]c3c2)c1 |
| < 1000 | O=C(CCNc1nccnn1)Cc1ccc2c(=O)[nH][nH]c2c1 |
| < 1000 | Cc1cc(Nc2cc(-c3ccco3)[nH]n2)nc(Nc2ccc3c(=O)[nH][nH]c3c2)n1 |
| < 1000 | Cc1cnc(NCCC(Cc2ccccc2)Oc2ccc3c(=O)[nH][nH]c3c2)s1 (stereo not drawn) |
| < 1000 | CNC(=O)c1cc(Nc2cc(C)[nH]n2)nc(Sc2ccc3c(=O)[nH][nH]c3c2)n1 |
| < 1000 | O=c1[nH][nH]c2cc(C(F)(F)F)c(-c3cc(-c4ccccc4)cc(Nc4n[nH]c5ccccc45)n3)cc12 |
| < 1000 | O=c1[nH][nH]c2cc(NCCCNc3nccnn3)ccc12 |
| < 1000 | CC(=O)Nc1cccc(-c2cc(Nc3cc(C)[nH]n3)nc(Sc3ccc4c(=O)[nH][nH]c4c3)n2)c1 |
| < 1000 | O=c1[nH][nH]c2cc(OC(CCNc3nccnn3)Cc3ccccc3)ccc12 (stereo not drawn) |
| < 1000 | Cn1cnc(NCCC(=O)Cc2ccc3c(=O)[nH][nH]c3c2)c1 |
| < 1000 | O=C(CC(=O)Nc1nccnn1)Cc1ccc2c(=O)[nH][nH]c2c1 |
| < 1000 | Cc1cc(Nc2cc(C(C)(C)OCCN(C)C)nc(Sc3ccc4c(=O)[nH][nH]c4c3)n2)n[nH]1 |
| < 1000 | Cc1cc(Nc2ccnc(Sc3ccc4c(=O)[nH][nH]c4c3)c2)n[nH]1 |
